These results are taken from patent US8883824B2, “3-(4-aminophenyl)-2-furancarboxylic acid derivative and pharmaceutically acceptable salt thereof” (Sumitomo Dainippon Pharma Co., Ltd., priority 2009, dated 2014).

“Also recorded” adds a separate entry of the source. Where a name gives a salt, the structure may show the parent alone.

The target in data set [1] is T1, glucagon receptor (rat hepatocyte membrane) (Rattus norvegicus, UniProt P30082).
T1 construct: A cell membrane was prepared from the liver of an SD rat; from tissue; host or cells: SD rat liver (cell membrane fraction)
Put plainly: Glucagon receptor binding inhibition. To be noted: SD rat liver cell membrane, 50 pM (3-[125I]iodotyrosyl10)glucagon, 25° C., 120 minutes; read-out: IC50 (nM) Rat, glucagon receptor binding inhibitory activity. Here is the method:
The composition of the reaction solution used in the receptor binding inhibition experiment was prepared according to the method described in Bioorg. Med. Chem. Lett., 1992, 12, 915-918, using the following methods. (3-[^125I] iodotyrosyl^10) Glucagon and a rat hepatocyte membrane were obtained or prepared according to the following methods.
(3-[^125I] iodotyrosyl^10)Glucagon was obtained according to the following method at PerkinElmer Co., Ltd (Great Britain). Using a chloramine T method, glucagon (Peptide Institute) was labeled with [^125I], and (3-[^1251] iodotyrosyl ^10)Glucagon was separated using HPLC. Purchased from PerkinElmer Co., Ltd. (Great Britain), was a product obtained by dissolving it in an aqueous solution containing 10 mM citric acid, 5% lactose, 0.2% cysteine HCl, and 0.25% BSA so that the radioactivity was 3.7 MBq/mL at reference date, followed by freeze-drying. The product was re-dissolved in a 0.3-TIU/mL aprotinin aqueous solution so that the radioactivity was 3.7 MBq/mL at reference date, and it was freeze-stored at −15 to −40° C. for use.
A cell membrane was prepared from the liver of an SD rat according to the method described on pages 31 to 33 of Zikken Seibutsugaku Kouza 6, Saibou bunkakuhou (Experimental Biology Lecture 6, Cell Fraction Method) (Maruzen Co., Ltd.). The resulting cell membrane was freeze-stored at −70 to −85° C. for use.
The cell membrane that had been dissolved at room temperature and then suspended using a Physcotron (Microtec Co., Ltd. was added to a 50-mM Tris-HCl buffer (pH 7.2) containing 1 mg/mL BSA (Sigma-Aldrich), 0.1 mg/mL bacitracin (Wako Pure Chemical Industries, Ltd.), 1% DMSO, 0.01% acetic acid, and 50 pM) (3-[^125I] iodotyrosyl^10) Glucagon (pH 7.2) (each value indicating the final concentration and the radioactivity of (3-[^125I] iodotyrosyl^10) Glucagon calculated on the measurement date) to give a total amount of 0.2 mL. The reaction was started and incubation was performed at 25° C. for 120 minutes. The concentration of the cell membrane was adjusted so that 10% of the added)(3-[^1251] iodotyrosyl^100 Glucagon was equal to the total amount of binding.
Using a GF/C filter (Whatman International Ltd., Great Britain) immersed for more than 15 minutes in 0.3% polyethyleneimine (Sigma-Aldrich, Co., LLC), whose pH was adjusted to 7.2 by adding hydrochloric acid, the reaction solution was subjected to suction filtration to recover (3-[^125I] iodotyrosyl)Glucagon bound to the membrane. The filter was washed 3 times with an ice-cooled 50-mM Tris-HCl buffer (pH 7.4), and the radioactivity of the filter was measured by using a γ counter (1470 WIZARD γ-counter)(Wallac). The amount of specific binding was measured by subtracting the amount of nonspecific binding determined in the presence of 10 μM glucagon (Peptide Institute, Inc.) from the total amount of binding.
The amount of specific binding in the absence of a test compound was regarded as 100%, and inhibitions (%) at various concentrations of test compounds were calculated. The concentration at 50% inhibition of binding (IC50) was calculated using a nonlinear least squares method.

The subject of data set [2] is ob/ob mice. In words: Blood sugar decrease in ob/ob mice (hyperglycemia and impaired fasting glycemia). The class given is in vivo. An excerpt: Effects of the compound of Example 69 on hyperglycemia and impaired fasting glycemia in ob/ob mice, which are type II diabetes models, were examined.
B6.V-Lepob/J (ob/ob) mice and control B6.V-Lepob/J (?/+) mice (male, 6 to 7 weeks old, n=8, Charles River Japan Inc.) were used. To examine the effect on hyperglycemia, feed was removed from the cage at the same time as the start of drug administration, and to examine the effect on impaired fasting glycemia, feed was removed from the cage about 20 hours before the scheduled time of drug administration. Under each experimental condition, the mice were allowed free access to drinking water. 2, 4 and 6 hours after the forced oral administration of the compound (0.01-1.0 mg/kg) of Example 69, which had been suspended in 0.5% methyl cellulose, the blood sugar levels were examined.

The subject of data set [3] is ob/ob mice. Put plainly: Combination use with DPPIV inhibitor sitagliptin, postprandial hyperglycemia in ob/ob mice. The class given is in vivo. As to the method: B6.V-Lepob/J (ob/ob) mice and control B6.V-Lepob/J (?/+) mice (male, 6 to 7 weeks old, n=8, Charles River Japan) were used. […] One hour later, liquid food (ensure H, Abbott Japan, Co., Ltd., 1.5 kcal/mL) was orally administered. The blood sugar levels immediately before, and 15, 30, 60, and 90 minutes after administration of the liquid food were measured.

For data set [4], the system named is ob/ob mice. In words: Combination use with metformin, HbA1c in ob/ob mice. To be noted: oral; for HbAlc value: single use, 4 weeks (Example 69 3 mg/kg twice a day; metformin 100 mg/kg twice a day). The class given is in vivo. As to the method: An experiment using the compound of Example 69 and metformin in combination was performed to examine the effect on the HbAlc value in ob/ob mice.
B6.V-Lepob/J (ob/ob) mice and control B6.V-Lepob/J (?/+) mice (male, 6 to 7 weeks old, n=8, Charles River Japan) were used. The compound of Example 69 (3 mg/kg, twice a day) suspended in 0.5% methyl cellulose, and metformin (100 mg/kg, twice a day) dissolved in the solvent were orally administered repeatedly for 4 weeks singly or in combination.

Data set [5] relates to ob/ob mice. In words: Combination use with pioglitazone, HbA1c in ob/ob mice. The class given is in vivo. To be noted: oral. As to the method: An experiment using the compound of Example 69 and pioglitazone in combination was performed to examine the effect on the HbAlc values in ob/ob mice.
B6.V-Lepob/J (ob/ob) mice and control B6.V-Lepob/J (?/+) mice (male, 6 to 7 weeks old, n=8, Charles River Japan) were used. The compound of Example 69 suspended in 0.5% methyl cellulose (3 mg/kg, twice a day), and pioglitazone (1 mg/kg, once a day) were orally administered repeatedly for 4 weeks singly or in combination.
The effects were compared based on the […] (HbA1c) value, and a diabetes-like state (prolonged hyperglycemic state) was confirmed by HbA1c increase in the ob/ob mice.

Setting [6] is: combination use of Example 69 (0.1 mg/kg) and sitagliptin (5 mg/lm), single oral dose.
Setting [7] is: single use, single oral dose (Example 69 0.1 mg/kg; sitagliptin 5 mg/lm) one hour before liquid food.

T1 sequence (P30082 27-485): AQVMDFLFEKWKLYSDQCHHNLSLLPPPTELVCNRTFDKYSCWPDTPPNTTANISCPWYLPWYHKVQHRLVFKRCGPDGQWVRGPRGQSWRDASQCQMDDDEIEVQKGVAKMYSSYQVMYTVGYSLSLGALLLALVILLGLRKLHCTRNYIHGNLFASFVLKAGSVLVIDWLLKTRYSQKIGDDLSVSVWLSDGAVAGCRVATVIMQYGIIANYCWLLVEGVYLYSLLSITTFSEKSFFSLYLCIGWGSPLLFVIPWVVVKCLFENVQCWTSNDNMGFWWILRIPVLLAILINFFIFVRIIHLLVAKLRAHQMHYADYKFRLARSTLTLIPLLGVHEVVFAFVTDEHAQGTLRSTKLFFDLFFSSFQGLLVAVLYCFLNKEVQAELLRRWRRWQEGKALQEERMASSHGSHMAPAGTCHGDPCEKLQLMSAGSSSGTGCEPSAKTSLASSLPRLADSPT

For `N#Cc1cc(C(=O)NNC(=O)c2occc2-c2cccc(NC(=O)c3ccccc3)c2)ccc1O` [Compound A, reference compound], in data set [1], the IC50 stood at 2800 nM.

`CC(=O)N(Cc1ccccc1)c1cccc(-c2ccoc2C(=O)NNC(=O)c2ccc(O)c(C#N)c2)c1` [Compound B, reference compound]: the concentration for half-maximal inhibition (IC50) in data set [1] is 1200 nM. On the same count and under the same terms, in the case of `CC(=O)Nc1cccc(-c2ccoc2C(=O)NNC(=O)c2ccc(O)c(C#N)c2)c1` [Compound C, reference compound] it was 340 nM; in that of `N#Cc1cc(C(=O)NNC(=O)c2occc2-c2cccc(NC(=O)OCc3ccccc3)c2)ccc1O` [Compound D, reference compound], 400 nM.

Take `N#Cc1cc(C(=O)NNC(=O)c2occc2-c2cccc(N)c2)ccc1O` [Compound E, reference compound]: the IC50 in data set [1] was found to be 9800 nM.

`Cc1ccc(C(C)Nc2ccc(-c3ccoc3C(=O)NNC(=O)c3ccc(O)c([N+](=O)[O-])c3)cc2)cc1` (stereo not drawn) [Example 1, 3-(4-{[1-(4-methylphenyl)ethyl]amino}phenyl)-2-furan carboxylic acid-2-(4-hydroxy-3-nitrobenzoyl)hydrazide hydrochloride]: in data set [1], the IC50 amounted to 0.22 nM. With `CC(C)(C)c1ccc(CNc2ccc(-c3ccoc3C(=O)NNC(=O)c3ccc(O)c([N+](=O)[O-])c3)cc2)cc1` [Example 6], the concentration for half-maximal inhibition (IC50) in data set [1] amounted to 0.13 nM. Take `O=C(NNC(=O)c1occc1-c1ccc(NCc2ccc(OC(F)(F)F)cc2)cc1)c1ccc(O)c([N+](=O)[O-])c1` [Example 7]: the IC50 in data set [1] was determined as 0.34 nM. For `C[C@H](Nc1ccc(-c2ccoc2C(=O)NNC(=O)c2ccc(O)c([N+](=O)[O-])c2)cc1)c1ccc(F)cc1` [Example 68, 3-(4-{[(1S)-1-(4-fluorophenyl)ethyl]amino}phenyl)-2-furan carboxylic acid-2-(4-hydroxy-3-nitrobenzoyl)hydrazide], the IC50 in data set [1] was 0.11 nM. For the molecule `Cc1ccc([C@H](C)Nc2ccc(-c3ccoc3C(=O)NNC(=O)c3ccc(O)c([N+](=O)[O-])c3)cc2)cc1` [Example 69], in the data set with ob/ob mice [2] (high-dose administration, oral), the “duration of the blood sugar decreasing effect” value is on record as “continued even 6 hours after the administration”. For the same molecule, the “blood sugar level relative to the healthy (control) mouse” value with ob/ob mice [2] (oral 0.01-1.0 mg/kg) was “not reduced to below the level of the healthy mouse”. Besides, the “blood sugar decreasing effect at 2 hours after administration” value in the data set on ob/ob mice [2] (oral 0.01-1.0 mg/kg, any dosage, under each experimental condition (hyperglycemia; impaired fasting glycemia)) was “remarkable blood sugar decreasing effect”. Moreover, the IC50 in data set [1] came to 0.085 nM. For the same molecule, in the data set on ob/ob mice [3] (setting [6]), the “area under the blood concentration-time curve (blood sugar) after liquid food” value is “normalized”, the “blood sugar level 15 minutes after the administration of liquid food” value is “normalized” and the hypoglycemia entry is “without causing hypoglycemia”. Moreover, in the data set on ob/ob mice [3] (combination use of Example 69 and sitagliptin (FIGS. 1 and 2)), the “postprandial hyperglycemia inhibitory effect versus the single use of each agent” value was “extremely stronger postprandial hyperglycemia inhibitory effect”. For the same molecule, in the data set with ob/ob mice [3] (setting [7]), the “area under the blood concentration-time curve (blood sugar) after liquid food” value is recorded as “normalized” and the “blood sugar increase 15 minutes after the administration of liquid food” value is listed as “could not normalize”. In addition, in the data set with ob/ob mice [4] (combination use of Example 69 (3 mg/kg twice a day) and metformin (100 mg/kg twice a day), 4 weeks), the “HbAlc reduction effect versus single use” value is given as “higher HbAlc reduction effect; also recorded: extremely stronger HbAlc reduction effect”. The HbAlc value result with ob/ob mice [4] is “HbAlc reduction”. Besides, the “HbA1c reduction effect versus single use” value in the data set with ob/ob mice [5] (combination use of Example 69 (3 mg/kg twice a day) and pioglitazone (1 mg/kg once a day), 4 weeks) is “higher HbA1c reduction effect; also recorded: extremely stronger HbA1c reduction effect”. Further, in the data set on ob/ob mice [5] (single use, 4 weeks (Example 69 3 mg/kg twice a day; pioglitazone 1 mg/kg once a day)), the HbA1c value result is reported as “attained HbA1c reduction”.

For `CCc1ccc([C@H](C)Nc2ccc(-c3ccoc3C(=O)NNC(=O)c3ccc(O)c([N+](=O)[O-])c3)cc2)cc1` [Example 70], the IC50 in data set [1] was 0.13 nM. Take `Cc1ccc([C@H](C)Nc2ccc(-c3ccoc3C(=O)NNC(=O)c3ccc(O)c([N+](=O)[O-])c3)cc2)cc1C` [Example 71]: in data set [1], the IC50 was found to be 0.043 nM. With `C[C@H](Nc1ccc(-c2ccoc2C(=O)NNC(=O)c2ccc(O)c([N+](=O)[O-])c2)cc1)c1ccc(Cl)cc1` [Example 72], the IC50 in data set [1] was 0.14 nM.

Regarding `Cc1cccc([C@H](C)Nc2ccc(-c3ccoc3C(=O)NNC(=O)c3ccc(O)c([N+](=O)[O-])c3)cc2)c1` [Example 73], in data set [1], the IC50 was 0.16 nM. For `Cc1cc([C@H](C)Nc2ccc(-c3ccoc3C(=O)NNC(=O)c3ccc(O)c([N+](=O)[O-])c3)cc2)ccc1Cl` [Example 75], the IC50 in data set [1] came out at 0.12 nM. The same measure, in the same setting: the result for `C[C@@H](Nc1ccc(-c2ccoc2C(=O)NNC(=O)c2ccc(O)c([N+](=O)[O-])c2)cc1)c1ccc(F)cc1` [Example 76] reads 5.8 nM.

On to `C[C@H](Nc1ccc(-c2ccoc2C(=O)NNC(=O)c2ccc(O)c([N+](=O)[O-])c2)cc1)C1CCCCC1` [Example 77], for which, in data set [1], the half-inhibitory concentration (IC50) was 0.35 nM.

For `C[C@H](Nc1ccc(-c2ccoc2C(=O)NNC(=O)c2ccc(O)c([N+](=O)[O-])c2)cc1)c1ccccc1` [Example 78], the concentration for half-maximal inhibition (IC50) in data set [1] amounted to 0.62 nM. Regarding `C[C@H](Nc1ccc(-c2ccoc2C(=O)NNC(=O)c2ccc(O)c(C#N)c2)cc1)c1ccc(F)cc1` [Example 79, 3-(4-{[(1S)-1-(4-fluorophenyl)ethyl]amino}phenyl)-2-furan carboxylic acid-2-(3-cyano-4-hydroxybenzoyl)hydrazide], in data set [1], the IC50 was 0.74 nM. As to `CN(C)C(=N)N=C(N)N` [metformin, reference compound], in the data set on ob/ob mice [4], the HbAlc value entry is recorded as “HbAlc reduction”.

The IC50 is the concentration at which inhibition is half-maximal.
